# Measurements from ChEMBL document CHEMBL5537197, “Discovery of Novel Coumarin-quinolinium Derivatives as Pan-KRAS Translation Inhibitors by Targeting 5'-UTR RNA G-Quadruplexes” (J Med Chem, 2024).
# Activity calls are given as the source filed them. The rule behind the calls is not given here.
# Tests used:
# MIA PaCa-2 [1] = experiment: Cytotoxicity against human MIA PaCa-2 cells harboring KRAS G12C mutant assessed as cell growth inhibition incubated for 24 hrs by MTT assay; type: functional, cell-based; settings: MIA PaCa-2, 24 h
# [2] = target: GTPase KRas (Homo sapiens) (UniProt P01116); experiment: Inhibition of KRAS in human MIA PaCa-2 cells assessed as decrease in ERK phosphorylation incubated for 24 hrs by Western blot analysis; type: cell-based; settings: dose 1.25-5 µM
# GTPase KRas (Homo sapiens), sequence (P01116 whole entry, looked up): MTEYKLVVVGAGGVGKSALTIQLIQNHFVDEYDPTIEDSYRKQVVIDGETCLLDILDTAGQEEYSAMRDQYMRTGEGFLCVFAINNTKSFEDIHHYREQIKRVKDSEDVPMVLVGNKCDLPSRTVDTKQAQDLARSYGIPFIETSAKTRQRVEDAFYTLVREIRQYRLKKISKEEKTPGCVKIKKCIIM
# HCT-116 = experiment: Cytotoxicity against human HCT-116 cells harboring KRAS G13D mutant assessed as cell growth inhibition incubated for 24 hrs by MTT assay; type: functional, cell-based; settings: HCT-116, 24 h
# [3] = target: GTPase KRas (Homo sapiens) (UniProt P01116); experiment: Inhibition of KRAS in human MIA PaCa-2 cells assessed as decrease in mTOR phosphorylation at 2.5 uM by Western blot analysis; type: cell-based; settings: time <= 24.0 hrs, TDE = time-dependent effect
# [4] = target: GTPase KRas (Homo sapiens) (UniProt P01116); experiment: Inhibition of KRAS in human MIA PaCa-2 cells assessed as decrease in AKT phosphorylation incubated for 24 hrs by Western blot analysis; type: cell-based; settings: dose 1.25-5 µM
# [5] = Toxicity in BALB/C-nu/nu mouse model xenografted with human MIA PaCa-2 cells assessed as signs of distress at 2.5 to 5 mg/kg,ip everyday for 18 days; type: organism-based; settings: in vivo, 432 h, dose 2.5-5 mg/kg, time 18 day
# NCM460 = experiment: Cytotoxicity against human NCM460 cells harboring wild-type KRAS assessed as cell growth inhibition incubated for 24 hrs by MTT assay; type: functional, cell-based; settings: NCM460, 24 h
# PANC-1 [6] = experiment: Cytotoxicity against human PANC-1 cells harboring KRAS G12D mutant assessed as cell growth inhibition incubated for 24 hrs by MTT assay; type: functional, cell-based; settings: PANC-1, 24 h
# Quadruplex DNA [7] = experiment: Binding affinity to TERRA G-Quadruplex (unknown origin) assessed as melting temperature at 25 uM at 25 to 95 degreeC by CD spectroscopy (reference value: 84.2 degreeC); type: nucleic-acid assay
# [8] = test system: GTPase KRas (Homo sapiens), P01116 [G12C]; experiment: Inhibition of KRAS G12C mutant in human MIA PaCa-2 cells incubated for 24 hrs by Western blot analysis; type: cell-based; settings: dose <= 5.0 µM
# GTPase KRas (Homo sapiens), P01116 [G12C], sequence (P01116 whole entry G12C): as the sequence (P01116 whole entry, looked up) above, with G12C counted along it
# MIA PaCa-2 [9] = experiment: In vivo inhibition of KRAS in human MIA PaCa-2 cells xenografted in BALB/C-nu/nu mouse model at 2.5 to 5 mg/kg,ip everyday for 18 days by IHC analysis; type: functional, organism-based; settings: dose 2.5-5 mg/kg, time 18.0 day
# HPAF-II = experiment: Cytotoxicity against human HPAF-II cells harboring KRAS G12D mutant assessed as cell growth inhibition incubated for 24 hrs by MTT assay; type: functional, cell-based
# [10] = Toxicity in BALB/C-nu/nu mouse model xenografted with human MIA PaCa-2 cells assessed as signs of discomfort at 2.5 to 5 mg/kg,ip everyday for 18 days; type: organism-based; settings: in vivo, 432 h, dose 2.5-5 mg/kg, time 18 day
# [11] = test system: GTPase KRas (Homo sapiens), P01116 [G12C]; experiment: Inhibition of KRAS G12C mutant in human NCI-H358 cells incubated for 24 hrs by Western blot analysis; type: cell-based; settings: dose <= 5.0 µM
# U-87 MG = experiment: Cytotoxicity against human U-87 MG cells harboring wild-type KRAS assessed as cell growth inhibition incubated for 24 hrs by MTT assay; type: functional, cell-based, U-87MG ATCC
# [12] = Toxicity in BALB/C-nu/nu mouse model xenografted with human MIA PaCa-2 cells assessed as body weight change at 2.5 to 5 mg/kg,ip everyday for 18 days; type: organism-based; settings: in vivo, 432 h, dose 2.5-5 mg/kg, time 18 day
# Quadruplex DNA [13] = experiment: Binding affinity to KRAS utr-z G-Quadruplex (unknown origin) assessed as dissociation constant by fluorescence spectroscopy; type: nucleic-acid assay
# Quadruplex DNA [14] = experiment: Binding affinity to KRAS DNA G-Quadruplex (unknown origin) assessed as melting temperature at 25 uM at 25 to 95 degreeC by CD spectroscopy (reference value: 50.1 degreeC); type: nucleic-acid assay
# SW-620 = experiment: Cytotoxicity against human SW620 cells harboring KRAS G12V mutant assessed as cell growth inhibition incubated for 24 hrs by MTT assay; type: functional, cell-based; settings: SW-620, 24 h
# [15] = target: GTPase KRas (Homo sapiens) (UniProt P01116); experiment: Inhibition of KRAS in human MIA PaCa-2 cells assessed as decrease in AKT phosphorylation at 2.5 uM by Western blot analysis; type: cell-based; settings: time <= 24.0 hrs, TDE = time-dependent effect
# MIA PaCa-2 [16] = experiment: Effect on total protein level in human MIA PaCa-2 cells at 2.5 uM incubated for upto 24 hrs by Western blot analysis; type: functional, cell-based
# [17] = target: GTPase KRas (Homo sapiens) (UniProt P01116); experiment: Inhibition of KRAS in human MIA PaCa-2 cells assessed as decrease in ERK phosphorylation at 2.5 uM by Western blot analysis; type: cell-based; settings: time <= 24.0 hrs, TDE = time-dependent effect
# Quadruplex DNA [18] = experiment: Disruption of DHX36/KRAS rG-Quadruplex (unknown origin) by ELISA; type: nucleic-acid assay; settings: dose 20.0 µM
# MIA PaCa-2 [19] = experiment: Induction of apoptosis in human MIA PaCa-2 cells assessed as increase in caspase-3 cleavage by Western blot analysis; type: functional, cell-based; settings: dose 1.25-5 µM
# PANC-1 [20] = experiment: Effect on KRAS mRNA level in human PANC-1 cells harboring KRAS G12D mutant at upto 5 uM incubated upto 48 hrs by RT-qPCR analysis; type: functional, cell-based
# Quadruplex DNA [21] = experiment: Binding affinity to KRAS utr-1 G-Quadruplex (unknown origin) assessed as dissociation constant by fluorescence spectroscopy; type: nucleic-acid assay
# [22] = target: GTPase KRas (Homo sapiens) (UniProt P01116); experiment: Inhibition of KRAS in human MIA PaCa-2 cells at 2.5 uM incubated for 24 hrs by Western blot analysis; type: cell-based
# NCI-H358 = experiment: Effect on KRAS mRNA level in human NCI-H358 cells harboring KRAS G12C mutant at upto 5 uM incubated upto 48 hrs by RT-qPCR analysis; type: functional, cell-based
# [23] = Toxicity in BALB/C-nu/nu mouse model xenografted with human MIA PaCa-2 cells assessed as drug tolerance at 2.5 to 5 mg/kg,ip everyday for 18 days; type: organism-based; settings: in vivo, 432 h, dose 2.5-5 mg/kg, time 18 day
# [24] = target: GTPase KRas (Homo sapiens) (UniProt P01116); experiment: Inhibition of KRAS in human MIA PaCa-2 cells assessed as decrease in MEK phosphorylation at 2.5 uM by Western blot analysis; type: cell-based; settings: time <= 24.0 hrs, TDE = time-dependent effect
# [25] = test system: GTPase KRas (Homo sapiens), P01116 [G12C]; experiment: Inhibition of KRAS G12C mutant in human NCI-H358 cells at 2.5 uM by Western blot analysis; type: cell-based; settings: time <= 48.0 hrs, TDE = time-dependent effect
# [26] = target: GTPase KRas (Homo sapiens) (UniProt P01116); experiment: Inhibition of KRAS in human PANC-1 cells at 2.5 uM incubated for 24 hrs by Western blot analysis; type: cell-based
# [27] = Toxicity in BALB/C-nu/nu mouse model xenografted with human MIA PaCa-2 cells assessed as toxic sigs in viscera at 2.5 to 5 mg/kg,ip everyday for 18 days; type: organism-based; settings: in vivo, 432 h, dose 2.5-5 mg/kg, time 18 day
# MIA PaCa-2 [28] = experiment: Effect on total KRAS mRNA level in human MIA PaCa-2 cells xenografted in BALB/C-nu/nu mouse model at 2.5 to 5 mg/kg,ip everyday for 18 days by RT-qPCR analysis; type: functional, organism-based; settings: dose 2.5-5 mg/kg, time 18.0 day
# MIA PaCa-2 [29] = experiment: Antitumor activity against human MIA PaCa-2 cells xenografted in BALB/C-nu/nu mouse model assessed as decrease of tumor volume administered intraperitoneally everyday for 18 days; type: functional, cell-based; settings: dose 2.5-5 mg/kg, route ip, time 18.0 day
# Quadruplex DNA [30] = experiment: Binding affinity to HP12 G-Quadruplex (unknown origin) assessed as dissociation constant by fluorescence spectroscopy; type: nucleic-acid assay
# [31] = test system: GTPase KRas (Homo sapiens), P01116 [G12D]; experiment: Inhibition of KRAS G12D mutant in human PANC-1 cells at 2.5 uM by Western blot analysis; type: cell-based; settings: time <= 48.0 hrs, TDE = time-dependent effect
# GTPase KRas (Homo sapiens), P01116 [G12D], sequence (P01116 whole entry G12D, looked up): as the sequence (P01116 whole entry, looked up) above, with G12D counted along it
smiles,measurement,setting,value
CCN(CC)c1ccc2cc(/C=C/c3ccc4cc(F)c(NCCN5CCCC5)cc4[n+]3C)c(=O)oc2c1.[I-],IC50,MIA PaCa-2 [1],33 µM
same,inhibition,[2],Dose-Dependent Effect
same,IC50,HCT-116,4 µM
same,inhibition,[3],Tde
same,inhibition,[4],Dose-Dependent Effect
same,Activity,[5],Non-Toxic
same,IC50,NCM460,> 40 µM
same,IC50,PANC-1 [6],5.6 µM
same,Tm,Quadruplex DNA [7],81.2 °C
same,inhibition,[8],Dose-Dependent Effect
same,Activity,MIA PaCa-2 [9],Active
same,IC50,HPAF-II,5.4 µM
same,Activity,[10],Non-Toxic
same,inhibition,[11],Dose-Dependent Effect
same,IC50,U-87 MG,> 40 µM
same,Activity,[12],Non-Toxic
same,Kd,Quadruplex DNA [13],2300 nM
same,Tm,Quadruplex DNA [14],52 °C
same,IC50,SW-620,5.1 µM
same,inhibition,[15],Tde
same,Activity,MIA PaCa-2 [16],inactive
same,inhibition,[17],Tde
same,Activity,Quadruplex DNA [18],Dose-Dependent Effect
same,Activity,MIA PaCa-2 [19],Dose-Dependent Effect
same,Activity,PANC-1 [20],inactive
same,Kd,Quadruplex DNA [21],900 nM
same,inhibition,[22],Active
same,Activity,NCI-H358,inactive
same,Activity,[23],Non-Toxic
same,inhibition,[24],Tde
same,inhibition,[25],Tde
same,inhibition,[26],Active
same,Activity,[27],Non-Toxic
same,Activity,MIA PaCa-2 [28],inactive
same,Activity,MIA PaCa-2 [29],Dose-Dependent Effect
same,Kd,Quadruplex DNA [30],> 5 µM
same,inhibition,[31],Tde
